Experiments:
Thromboxane-A synthase = target: T1, Thromboxane-A synthase (Homo sapiens, UniProt P24557); test: In vitro inhibitory activity against human microsomal thromboxane synthase.
T1 sequence (P24557 whole entry): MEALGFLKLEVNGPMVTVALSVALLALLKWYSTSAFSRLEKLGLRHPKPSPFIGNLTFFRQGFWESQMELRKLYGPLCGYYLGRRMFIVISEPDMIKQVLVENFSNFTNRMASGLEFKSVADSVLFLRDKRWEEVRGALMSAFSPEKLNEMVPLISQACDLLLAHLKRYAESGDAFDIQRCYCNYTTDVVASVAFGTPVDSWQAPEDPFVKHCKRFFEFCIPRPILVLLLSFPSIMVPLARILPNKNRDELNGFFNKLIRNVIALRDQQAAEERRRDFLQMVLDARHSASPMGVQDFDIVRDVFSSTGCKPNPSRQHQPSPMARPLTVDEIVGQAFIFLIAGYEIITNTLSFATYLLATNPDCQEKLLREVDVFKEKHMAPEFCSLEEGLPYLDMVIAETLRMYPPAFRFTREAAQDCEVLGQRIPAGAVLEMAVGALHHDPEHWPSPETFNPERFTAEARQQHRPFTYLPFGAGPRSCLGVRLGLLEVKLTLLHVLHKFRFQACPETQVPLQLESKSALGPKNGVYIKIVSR

Homo sapiens = species: Homo sapiens; test: Antagonistic activity against human platelet aggregation induced by U-46,619.; type: functional, organism-based; conditions: read-out: pA2 (converted)
Rattus norvegicus [1] = test: Compound at an oral dose of 10 mg/Kg was tested ex vivo in rat after 5 hr against platelet aggregation induced by U-46,619; type: functional, organism-based; conditions: read-out: pA2 (converted)
Canis familiaris [2] = test: Compound at an oral dose of 1 mg/Kg was tested ex vivo after 5 hr for inhibition of thromboxane synthase in dog; type: functional; conditions: Canis lupus familiaris
Canis familiaris [3] = test: Compound at an oral dose of 1 mg/Kg was tested ex vivo after 1 hr for inhibition of thromboxane synthase in dog; type: functional; conditions: Canis lupus familiaris
Canis familiaris [4] = test: Compound at an oral dose of 1 mg/Kg was tested ex vivo after 3 hr for inhibition of thromboxane synthase in dog; type: functional; conditions: Canis lupus familiaris
Rattus norvegicus [5] = test: Compound at an oral dose of 10 mg/Kg was tested ex vivo after 1 hr for inhibition of thromboxane synthase in rat; type: functional
Rattus norvegicus [6] = test: Compound at an oral dose of 10 mg/Kg was tested ex vivo after 3 hr for inhibition of thromboxane synthase in rat; type: functional
Rattus norvegicus [7] = test: Compound at an oral dose of 10 mg/Kg was tested ex vivo after 5 hr for inhibition of thromboxane synthase in rat; type: functional

| SMILES | IC50 (Thromboxane-A synthase) | Kb (Homo sapiens) | also measured |
| --- | --- | --- | --- |
| O=C(O)CC/C=C\C[C@@H]1CO[C@H](c2ccc(OCCCCCCOc3cc(C(=O)O)ccc3OCCn3ccnc3)cc2)O[C@@H]1c1ccccc1O | 40 nM | 158 nM |  |
| O=C(O)CC/C=C\C[C@@H]1CO[C@H](COc2cc(C(=O)O)ccc2OCCn2ccnc2)O[C@@H]1c1ccccc1O | 1700 nM | 3160 nM |  |
| O=C(O)CC/C=C\C[C@@H]1CO[C@H](CCCCCOc2ccc(/C(=C\CCCCC(=O)O)c3cccnc3)cc2)O[C@@H]1c1ccccc1O | 10 nM | 200 nM |  |
| O=C(O)CC/C=C\C[C@@H]1CO[C@H](c2ccc(OCCOc3ccc(/C(=C\CCCCC(=O)O)c4cccnc4)cc3)cc2)O[C@@H]1c1ccccc1O | 50 nM | 631 nM |  |
| O=C(O)c1ccc(OCCn2ccnc2)cc1 [DAZOXIBEN] |  | > 10000 nM | inhibition in vivo at 1 mg/kg (Canis familiaris [2]): 77%; inhibition in vivo at 1 mg/kg (Canis familiaris [3]): 73%; inhibition in vivo at 1 mg/kg (Canis familiaris [4]): 91%; inhibition in vivo at 10 mg/kg (Rattus norvegicus [5]): 86%; inhibition in vivo at 10 mg/kg (Rattus norvegicus [6]): 87% |
| O=C(O)CC/C=C\C[C@@H]1CO[C@H](c2cccc(OCCOc3cc(C(=O)O)ccc3OCCn3ccnc3)c2)O[C@@H]1c1ccccc1O | 30 nM | 158 nM |  |
| O=C(O)CC/C=C\C[C@@H]1CO[C@H](c2ccc(OCCn3ccnc3)c(C(=O)O)c2)O[C@@H]1c1ccccc1O | 3800 nM | 1260 nM |  |
| O=C(O)CC/C=C\C[C@@H]1CO[C@H](c2ccccc2OCCOc2cc(C(=O)O)ccc2OCCn2ccnc2)O[C@@H]1c1ccccc1O | 30 nM | 1260 nM |  |
| O=C(O)CC/C=C\C[C@@H]1CO[C@H](CCCCCOc2cc(C(=O)O)ccc2OCCn2ccnc2)O[C@@H]1c1ccccc1O | 60 nM | 1260 nM |  |
| O=C(O)CCCC/C=C(\c1ccccc1)c1cccnc1 [(E)-ISBOGREL] |  | > 10000 nM | inhibition in vivo at 1 mg/kg (Canis familiaris [2]): 82%; inhibition in vivo at 1 mg/kg (Canis familiaris [3]): 93%; inhibition in vivo at 1 mg/kg (Canis familiaris [4]): 83%; inhibition in vivo at 10 mg/kg (Rattus norvegicus [5]): 97%; inhibition in vivo at 10 mg/kg (Rattus norvegicus [7]): 87%; inhibition in vivo at 10 mg/kg (Rattus norvegicus [6]): 97% |
| O=C(O)CC/C=C\C[C@@H]1CO[C@H](C(CCC/C=C(/c2ccccc2)c2cccnc2)C(=O)O)O[C@@H]1c1ccccc1O (stereo partly drawn) | 40 nM | > 10000 nM |  |
| O=C(O)CC/C=C\C[C@@H]1CO[C@H](c2ccc(COc3cccc(/C(=C\CCCCC(=O)O)c4cccnc4)c3)cc2)O[C@@H]1c1ccccc1O | 10 nM | 100 nM |  |
| CC(C)(c1ccc(/C(=C\CCCCC(=O)O)c2cccnc2)cc1)[C@H]1OC[C@@H](C/C=C\CCC(=O)O)[C@@H](c2ccccc2O)O1 | 30 nM | 251 nM |  |

Second part, led by results:

| IC50 (Thromboxane-A synthase) | SMILES | Kb (Homo sapiens) | also measured |
| --- | --- | --- | --- |
| 50 nM | O=C(O)CC/C=C\C[C@@H]1CO[C@H](c2ccc(CCOc3ccc(/C(=C\CCCCC(=O)O)c4cccnc4)cc3)cc2)O[C@@H]1c1ccccc1O | 631 nM |  |
| 40 nM | O=C(O)CC/C=C\C[C@@H]1CO[C@H](CCCCCCCCCCOc2ccc(/C(=C\CCCCC(=O)O)c3cccnc3)cc2)O[C@@H]1c1ccccc1O | 2510 nM |  |
| > 100000 nM | O=C(O)CC/C=C\C[C@@H]1CO[C@H](c2ccccc2Cl)O[C@@H]1c1ccccc1O | 3.16 nM | Kb (Rattus norvegicus [1]): 100 nM |
| > 10000 nM | O=C(O)CC/C=C\C[C@@H]1CO[C@H](c2cncc(/C(=C/CCCCC(=O)O)c3ccccc3)c2)O[C@@H]1c1ccccc1O | 39.8 nM |  |
| 40 nM | O=C(O)CC/C=C\C[C@@H]1CO[C@H](c2cccc(OCCOc3ccc(/C(=C\CCCCC(=O)O)c4cccnc4)cc3)c2)O[C@@H]1c1ccccc1O | 794 nM |  |
| 70 nM | O=C(O)CC/C=C\C[C@@H]1CO[C@H](c2cccc(OCCCCCCOc3ccc(/C(=C\CCCCC(=O)O)c4cccnc4)cc3)c2)O[C@@H]1c1ccccc1O | 100 nM |  |
| 60 nM | O=C(O)CC/C=C\C[C@@H]1CO[C@H](c2ccc(OCCOc3cc(C(=O)O)ccc3OCCn3ccnc3)cc2)O[C@@H]1c1ccccc1O | 501 nM |  |
| 20 nM | O=C(O)CC/C=C\C[C@@H]1CO[C@H](c2ccc(COc3ccc(/C(=C\CCCCC(=O)O)c4cccnc4)cc3)cc2)O[C@@H]1c1ccccc1O | 200 nM |  |
| 40 nM | O=C(O)CC/C=C\C[C@@H]1CO[C@H](c2ccc(/C(=C\CCCCC(=O)O)c3cccnc3)cc2)O[C@@H]1c1ccccc1O | 100 nM |  |
| 30 nM | CC(C)(CCCCOc1ccc(/C(=C\CCCCC(=O)O)c2cccnc2)cc1)[C@H]1OC[C@@H](C/C=C\CCC(=O)O)[C@@H](c2ccccc2O)O1 | 251 nM |  |
| 30 nM | O=C(O)CC/C=C\C[C@@H]1CO[C@H](CCOc2ccc(/C(=C\CCCCC(=O)O)c3cccnc3)cc2)O[C@@H]1c1ccccc1O | 200 nM |  |
| 10 nM | CC(C)(CCCCCc1ccc(/C(=C\CCCCC(=O)O)c2cccnc2)cc1)[C@H]1OC[C@@H](C/C=C\CCC(=O)O)[C@@H](c2ccccc2O)O1 | 501 nM |  |
| 50 nM | O=C(O)CC/C=C\C[C@@H]1CO[C@H](c2ccc3cc(/C(=C\CCCCC(=O)O)c4cccnc4)ccc3c2)O[C@@H]1c1ccccc1O | 251 nM |  |
| 30 nM | O=C(O)CC/C=C\C[C@@H]1CO[C@H](c2ccccc2OCCOc2ccc(/C(=C\CCCCC(=O)O)c3cccnc3)cc2)O[C@@H]1c1ccccc1O | 158 nM |  |
| > 10000 nM | O=C(O)CC/C=C\C[C@@H]1CO[C@H](c2cncc(/C(=C\CCCCC(=O)O)c3ccccc3)c2)O[C@@H]1c1ccccc1O | 25.1 nM |  |
| 40 nM | O=C(O)CC/C=C\C[C@@H]1CO[C@H](c2cccc(COc3ccc(/C(=C\CCCCC(=O)O)c4cccnc4)cc3)c2)O[C@@H]1c1ccccc1O | 200 nM |  |
